Experimental findings from ChEMBL document CHEMBL1201862, “PubChem BioAssay data set” (2004) are described below.

Each structure is given as a SMILES string. Active and inactive are the calls of the source.

One experiment addresses T1, Aminopeptidase N (Plasmodium falciparum FcB1/Columbia, UniProt O96935).
T1 sequence (O96935 whole entry): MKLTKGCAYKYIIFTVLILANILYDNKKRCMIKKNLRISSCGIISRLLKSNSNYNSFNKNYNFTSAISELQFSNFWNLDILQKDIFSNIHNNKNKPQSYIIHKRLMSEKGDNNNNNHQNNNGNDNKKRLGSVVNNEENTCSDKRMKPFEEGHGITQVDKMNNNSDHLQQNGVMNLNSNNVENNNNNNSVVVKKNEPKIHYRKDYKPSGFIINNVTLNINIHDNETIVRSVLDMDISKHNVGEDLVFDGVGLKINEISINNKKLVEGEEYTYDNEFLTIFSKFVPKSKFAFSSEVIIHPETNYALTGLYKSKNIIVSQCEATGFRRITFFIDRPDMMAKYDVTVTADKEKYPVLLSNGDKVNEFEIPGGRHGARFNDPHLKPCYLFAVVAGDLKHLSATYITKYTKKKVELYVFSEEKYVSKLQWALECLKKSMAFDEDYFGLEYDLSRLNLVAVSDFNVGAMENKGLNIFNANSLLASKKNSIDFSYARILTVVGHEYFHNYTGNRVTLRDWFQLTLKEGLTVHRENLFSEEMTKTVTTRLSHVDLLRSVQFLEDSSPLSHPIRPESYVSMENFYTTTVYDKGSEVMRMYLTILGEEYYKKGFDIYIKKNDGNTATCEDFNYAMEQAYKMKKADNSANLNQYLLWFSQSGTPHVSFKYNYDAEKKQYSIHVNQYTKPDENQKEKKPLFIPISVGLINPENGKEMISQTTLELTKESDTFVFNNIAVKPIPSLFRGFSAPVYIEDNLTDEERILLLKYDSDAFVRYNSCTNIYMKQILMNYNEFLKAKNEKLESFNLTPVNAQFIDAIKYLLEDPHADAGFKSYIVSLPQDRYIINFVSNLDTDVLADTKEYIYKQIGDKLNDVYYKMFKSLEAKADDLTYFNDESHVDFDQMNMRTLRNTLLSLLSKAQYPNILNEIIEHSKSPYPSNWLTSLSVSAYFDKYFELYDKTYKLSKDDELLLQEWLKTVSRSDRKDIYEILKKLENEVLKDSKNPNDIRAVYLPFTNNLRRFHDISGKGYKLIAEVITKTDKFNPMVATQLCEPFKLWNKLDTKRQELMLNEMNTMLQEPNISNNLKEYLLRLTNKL
Put plainly: malaria alanyl aminopeptidase activity blockers – biochemical, fluorogenic H-Leu-NHMec substrate, 1536-well (AID 1445). More on the design: species or system Plasmodium falciparum 3D7, 3D7.

For the next experiment, the system named is HT-1080. Kind of experiment: HT1080 cell viability loss – fluorescence readout (AID 620). The experiment is classed as functional, cell-based. Particulars: Homo sapiens.
The target of experiment [1] is T2, Luciferin 4-monooxygenase (Photinus pyralis, UniProt P08659). Put plainly: Counter Screen for Luciferase-based Assay Positives. [Related pubchem assays: 620, 618, 411 ].
In a further experiment the target is T3, Bcl-2-like protein 10 (Homo sapiens, UniProt Q9HD36).
T3 sequence (Q9HD36 whole entry): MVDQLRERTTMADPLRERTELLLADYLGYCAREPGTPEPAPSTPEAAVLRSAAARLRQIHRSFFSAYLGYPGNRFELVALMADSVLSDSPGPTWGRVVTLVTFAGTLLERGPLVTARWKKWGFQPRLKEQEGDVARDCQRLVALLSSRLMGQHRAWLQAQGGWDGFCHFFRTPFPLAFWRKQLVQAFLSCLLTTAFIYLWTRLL
Kind of experiment: Bcl-B/TR3 peptide binding disruption – biochemical, fluorescence polarization, FITC-TR3 peptide, selectivity assay for Bfl-1 inhibitor project, primary screen (AID 748).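 Note: fluorescence polarization from a fluorescein-labelled TR3 peptide binding purified Bcl-B.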

Experiment [2] addresses T2, Luciferin 4-monooxygenase. Kind of experiment: inhibition of purified Photinus pyralis luciferase – biochemical, luminescence, dose response (AID 1891).
Experiment [3] in a line: Luminescence Cell-Based Dose Response HTS to Identify Inhibitors of 5'UTR Stem-Loop Driven Prion Protein mRNA Translation in H4 Neuroglioblastoma Cells. [Related pubchem assays: 1827 (Project Summary), 1813 (Primary HTS)]. The experiment is classed as functional.
A short description of experiment [4]: Luminescence Cell-Based Dose Confirmation HTS to Identify Inhibitors of Platelet Dense Granule Release. [Related pubchem assays: 1663 (Primary HTS), 1678 (Summary of Project)]. In kind it is functional.
Experiment [5] in a line: alpha-synuclein stem-loop luciferase translation blockers – H4 neuroglioma cells, luminescence, confirmation (AID 1988). In kind it is functional, cell-based.
Experiment [6] addresses T4, Heat shock factor protein 1 (Mus musculus, UniProt P38532).
T4 sequence (P38532 whole entry): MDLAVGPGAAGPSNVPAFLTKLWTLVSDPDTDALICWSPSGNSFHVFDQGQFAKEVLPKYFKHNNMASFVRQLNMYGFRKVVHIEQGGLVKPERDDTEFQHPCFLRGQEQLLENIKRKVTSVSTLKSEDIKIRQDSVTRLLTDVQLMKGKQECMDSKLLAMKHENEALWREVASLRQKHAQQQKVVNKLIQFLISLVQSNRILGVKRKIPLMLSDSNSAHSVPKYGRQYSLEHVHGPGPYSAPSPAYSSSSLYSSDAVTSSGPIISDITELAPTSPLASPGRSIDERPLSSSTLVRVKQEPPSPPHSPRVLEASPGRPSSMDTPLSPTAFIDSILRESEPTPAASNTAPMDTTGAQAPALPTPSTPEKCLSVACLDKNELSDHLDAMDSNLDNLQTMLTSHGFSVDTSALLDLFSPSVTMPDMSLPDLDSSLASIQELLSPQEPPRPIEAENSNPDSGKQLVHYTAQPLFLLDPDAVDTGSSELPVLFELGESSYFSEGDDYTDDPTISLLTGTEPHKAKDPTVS
Put plainly: decrease of HSF1-responsive luciferase luminescence – cell-based, NIH3T3, dose retest, confirmation (AID 2382).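 Note: NIH3T3 fibroblasts with HSF1-driven luciferase reporter stressed by proteasome inhibitor MG132; luminescence from HSF1-driven luciferase expression after 8 hours of MG132 stress.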 In kind it is functional.

Experiment [7] concerns the target T5, Mannose-6-phosphate isomerase (Homo sapiens, UniProt P34949).
T5 sequence (P34949 whole entry): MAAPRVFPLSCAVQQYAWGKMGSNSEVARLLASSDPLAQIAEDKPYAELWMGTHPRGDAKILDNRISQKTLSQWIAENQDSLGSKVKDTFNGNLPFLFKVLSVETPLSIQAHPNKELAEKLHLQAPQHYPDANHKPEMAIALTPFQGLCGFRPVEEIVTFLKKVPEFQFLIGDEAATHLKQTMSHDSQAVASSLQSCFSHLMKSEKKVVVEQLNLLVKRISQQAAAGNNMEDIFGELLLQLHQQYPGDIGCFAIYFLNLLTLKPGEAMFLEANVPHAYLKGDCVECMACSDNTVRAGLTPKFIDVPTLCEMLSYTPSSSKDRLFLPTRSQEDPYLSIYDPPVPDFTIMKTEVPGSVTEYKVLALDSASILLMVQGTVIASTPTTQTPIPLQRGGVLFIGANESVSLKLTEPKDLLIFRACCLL
Put plainly: MPI inhibition at elevated mannose 6-phosphate – biochemical, fluorescence intensity, high mannose 6-phosphate, primary screen (AID 1220).

Another experiment in a line: cells. In kind it is functional.
Experiment [8] can be described thus: THP-1 cell cytotoxicity, dose response, cytotoxicity control for non-replicating M. tuberculosis project (AID 489025). The experiment is classed as functional.
Experiment [9] has as its target T6, Short transient receptor potential channel 4 (Mus musculus, UniProt Q9QUQ5).
T6 sequence (Q9QUQ5 whole entry): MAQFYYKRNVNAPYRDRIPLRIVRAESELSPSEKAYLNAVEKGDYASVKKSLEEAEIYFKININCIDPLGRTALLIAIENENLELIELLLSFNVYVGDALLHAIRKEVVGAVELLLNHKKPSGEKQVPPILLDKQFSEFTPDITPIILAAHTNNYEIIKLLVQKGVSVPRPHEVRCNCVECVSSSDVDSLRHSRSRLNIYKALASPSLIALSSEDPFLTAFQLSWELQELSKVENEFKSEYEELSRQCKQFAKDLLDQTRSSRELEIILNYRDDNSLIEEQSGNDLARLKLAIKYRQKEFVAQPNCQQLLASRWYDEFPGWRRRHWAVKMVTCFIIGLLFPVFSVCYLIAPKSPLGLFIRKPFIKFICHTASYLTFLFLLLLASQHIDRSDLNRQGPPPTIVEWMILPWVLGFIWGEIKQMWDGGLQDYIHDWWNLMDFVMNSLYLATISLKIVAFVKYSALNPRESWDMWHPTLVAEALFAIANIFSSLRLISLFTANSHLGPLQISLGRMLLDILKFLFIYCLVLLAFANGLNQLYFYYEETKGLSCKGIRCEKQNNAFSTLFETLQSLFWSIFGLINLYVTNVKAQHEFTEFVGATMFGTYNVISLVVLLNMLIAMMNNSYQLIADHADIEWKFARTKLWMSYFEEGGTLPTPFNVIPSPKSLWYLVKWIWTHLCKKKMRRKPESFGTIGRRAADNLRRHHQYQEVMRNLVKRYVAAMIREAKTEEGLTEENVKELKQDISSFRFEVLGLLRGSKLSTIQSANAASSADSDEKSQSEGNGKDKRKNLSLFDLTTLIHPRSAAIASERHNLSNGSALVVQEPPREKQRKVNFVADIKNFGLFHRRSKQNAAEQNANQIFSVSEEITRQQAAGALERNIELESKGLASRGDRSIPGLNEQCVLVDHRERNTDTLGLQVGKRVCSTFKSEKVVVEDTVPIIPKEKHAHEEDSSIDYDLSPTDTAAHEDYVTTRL
Put plainly: calcium entry via TRPC4 opening agents – cell-based, HEK293 TRPC4/mu-opioid, Fluo-4 calcium, dose response (AID 434937). In kind it is functional.

The target of another experiment is T7, Estrogen receptor (Homo sapiens, UniProt P03372).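 Note: potency for inhibiting coactivator peptide recruitment to the receptor.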
T7 sequence (P03372 whole entry): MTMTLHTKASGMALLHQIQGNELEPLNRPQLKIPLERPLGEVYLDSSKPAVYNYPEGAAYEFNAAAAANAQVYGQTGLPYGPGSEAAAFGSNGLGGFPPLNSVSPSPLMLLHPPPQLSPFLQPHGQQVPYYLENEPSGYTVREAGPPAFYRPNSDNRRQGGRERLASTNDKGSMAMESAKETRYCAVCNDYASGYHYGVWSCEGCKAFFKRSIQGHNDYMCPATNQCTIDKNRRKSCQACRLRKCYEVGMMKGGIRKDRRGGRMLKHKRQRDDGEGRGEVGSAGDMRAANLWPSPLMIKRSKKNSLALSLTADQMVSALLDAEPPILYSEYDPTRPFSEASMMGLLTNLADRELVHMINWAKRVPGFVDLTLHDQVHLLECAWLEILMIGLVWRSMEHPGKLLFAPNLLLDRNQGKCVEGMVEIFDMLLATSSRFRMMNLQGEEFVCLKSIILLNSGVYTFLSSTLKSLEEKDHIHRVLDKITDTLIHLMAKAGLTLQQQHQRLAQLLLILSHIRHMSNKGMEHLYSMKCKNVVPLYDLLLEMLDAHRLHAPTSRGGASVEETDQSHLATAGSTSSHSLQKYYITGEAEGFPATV

Experiment [10] addresses Mitogen-activated protein kinase 10 (Homo sapiens, UniProt P53779). Put plainly: Dose response biochemical screening assay for inhibitors of c-Jun N-Terminal Kinase 3 (JNK3). [Related pubchem assays: 746 ].
Experiment [11] is described as follows: viability loss in human Jurkat cells – cell-based, luminescence, cytotoxicity control for P. falciparum gametocyte viability project, dose response (AID 1117277).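 Note: potency reflects loss of cellular ATP meaning fewer viable cells.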 In kind it is functional.
Experiment [12] is described as follows: viability inhibitors of stage V gametocytes – luminescence, dose response (AID 1117278).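 Note: gametocytes exposed to compound for 24 hours.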 The experiment is classed as functional, cell-based.
Another experiment concerns the target Prothrombin (Homo sapiens, UniProt P00734). Put plainly: Thrombin 1536 HTS Dose Response Confirmation. [Related pubchem assays: 1046 (Thrombin 1536 HTS; hits were confirmed in this assay)]. In kind it is functional.

T2 sequence (P08659 whole entry): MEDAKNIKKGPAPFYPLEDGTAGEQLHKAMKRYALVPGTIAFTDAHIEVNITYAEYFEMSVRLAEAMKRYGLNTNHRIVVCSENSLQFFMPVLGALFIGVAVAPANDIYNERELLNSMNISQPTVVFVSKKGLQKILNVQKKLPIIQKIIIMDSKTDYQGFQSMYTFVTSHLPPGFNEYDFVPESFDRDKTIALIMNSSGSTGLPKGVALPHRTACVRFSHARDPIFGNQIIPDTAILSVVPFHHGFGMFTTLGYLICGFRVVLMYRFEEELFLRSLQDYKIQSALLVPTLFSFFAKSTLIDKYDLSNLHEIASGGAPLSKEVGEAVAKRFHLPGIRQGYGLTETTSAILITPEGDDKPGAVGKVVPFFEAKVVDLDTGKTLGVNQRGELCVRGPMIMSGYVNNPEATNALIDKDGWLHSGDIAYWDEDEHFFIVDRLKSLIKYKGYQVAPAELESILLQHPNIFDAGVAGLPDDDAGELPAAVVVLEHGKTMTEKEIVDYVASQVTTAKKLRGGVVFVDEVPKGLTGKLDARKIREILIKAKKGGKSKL
Chain of Mitogen-activated protein kinase 10 (P53779 whole entry): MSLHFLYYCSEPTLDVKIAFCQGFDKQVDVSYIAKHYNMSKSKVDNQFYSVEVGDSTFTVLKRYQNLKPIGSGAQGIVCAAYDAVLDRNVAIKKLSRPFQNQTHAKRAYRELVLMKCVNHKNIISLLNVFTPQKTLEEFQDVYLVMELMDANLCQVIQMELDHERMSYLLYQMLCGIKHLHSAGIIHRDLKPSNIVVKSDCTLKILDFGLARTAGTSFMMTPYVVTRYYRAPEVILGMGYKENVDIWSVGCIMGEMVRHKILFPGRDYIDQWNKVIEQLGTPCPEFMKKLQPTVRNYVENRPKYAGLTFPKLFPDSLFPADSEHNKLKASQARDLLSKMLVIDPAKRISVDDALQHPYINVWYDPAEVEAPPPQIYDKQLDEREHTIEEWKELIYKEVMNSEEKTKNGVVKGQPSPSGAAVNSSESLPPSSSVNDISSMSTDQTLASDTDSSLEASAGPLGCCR

Turning to `CC(NC(=O)CN(C)S(=O)(=O)c1c[nH]cn1)c1ccccc1` (centres undefined), the IC50 on Aminopeptidase N was 54.6 µM (active).
With `Cc1cccc(-n2ncc3c(N4CCCC4)ncnc32)c1`, the results for the EC50 (in the experiment on HT-1080; in experiment [1]) were > 50 µM (not active) and 1.02 µM (active), respectively.
With `O=C(COC(=O)c1ccc(S(=O)(=O)NCc2ccco2)cc1)NCC1CCCCC1`, at Bcl-2-like protein 10, the IC50 was > 100 µM (inactive).
Take `COc1ccc(/N=C/C2=C(O)c3ccccc3C2=O)c(OC)c1`: the EC50 in the experiment with HT-1080 was > 50 µM (not active); in experiment [2], 1.21 µM (active); in experiment [3], 11.7 µM (active); in [1] it was 50.2 µM (active); in [4], 3.47 µM (active); in [5] it was 8.03 µM (active). The EC50 in experiment [6] was 2.42 µM (active).
With `O=C(CCN1CCOCC1)c1ccc(Br)cc1`, the results for the IC50 (in experiment [7]; in “cells”) were 43 µM (active) and 11.8 µM (active), respectively. For the same compound, the CC50 in experiment [8] was > 40 µM (active).
With `O=C(O)c1ccc(-c2ccc(/C=N/Nc3ccc([N+](=O)[O-])cc3)o2)cc1`, the EC50 in [9] is 2.11 µM (active). For the same compound, the IC50 at Aminopeptidase N was 43.1 µM (active).
As for `O=C(CNC(=O)c1ccncc1)N/N=C/c1cc(Br)ccc1O`, the half-maximal inhibitory concentration (IC50) on Aminopeptidase N was 24.5 µM (active).
With `Cc1nc2cccc(C(=O)NCc3ccccc3)c2o1`, the IC50 was 48.4 µM (not active) on Estrogen receptor and 45.5 µM (not active) in experiment [10].
Take `O=C(Cc1c(F)cccc1Cl)Nc1ncc([N+](=O)[O-])s1`: the IC50 in experiment [11] was > 83.3 µM (inactive); in experiment [12] it was > 109 µM (inactive). Further, the CC50 in experiment [8] is > 40 µM (active).
For `Cc1ccc(NC(=O)c2ccc3ccccc3n2)cc1S(=O)(=O)N1CCOCC1`, at Prothrombin, the half-inhibitory concentration (IC50) was 40.9 µM (active).
On the same count and under the same terms, under `COC(=O)CN1C(=O)C(O)(CC(=O)c2ccc(Cl)cc2)c2ccccc21` (centres undefined) stands > 50 µM (not active).
